Test results from patent US20200383985A1, “Inhibitors of Protease Activated Receptor-2” (Endosome Therapeutics, Inc., priority 2017, published 2020).

How the values were obtained:
PKC and ERK activity = experiment: FRET assays of compartmentalized PKC and ERK in DRG neurons; assay type: cell-based, rat
Method: To determine whether trypsin causes PAR2-dependent activation of PKC and ERK, which respectively mediate initial and persistent trypsin-induced hyperexcitability of nociceptors, genetically-encoded Förster Resonance Energy Transfer (FRET) biosensors were expressed in neurons. […] Trypsin (10 or 100 nM) activated PKC at the plasma membrane but not in the cytosol (FIG. 4E-G), and activated ERK in the cytosol and nucleus (FIG. 4H-J). The PAR2 antagonist I-343 (10 μM) inhibited trypsin-induced activation of PKC and ERK, whereas the PAR1 antagonist SCH530348 (100 nM) had no effect (FIG. 4F, I). At the end of experiments, neurons were challenged with the positive controls phorbol 12,13-dibutyrate (PDBu) for EKAR biosensors or PDBu plus phosphatase inhibitor mixture-2 for CKAR biosensors, to ensure that the response of the biosensor was not saturated.
DRG were collected from C57BL/6 mice and Sprague-Dawley rats (all levels). DRG were incubated with collagenase IV (2 mg/ml) and dispase II (1 mg/ml) for 30 min (mice) and 45 min (rats) at 37° C. DRG were dispersed by trituration with a fire-polished Pasteur pipette. Dissociated neurons were transfected with mPAR2-GFP (1 μg), the FRET biosensors CytoEKAR, NucEKAR, pmCKAR or CytoCKAR (all […]), or with the BRET biosensors PAR2-RLuc8 (125 ng) and βARR2-FYP (475 ng) using the Lonza 4D-Nucleofector X unit according to the manufacturer's instructions. Neurons were plated on laminin- (0.004 mg/ml) and poly-L-Lysine- (0.1 mg/ml) coated glass coverslips for confocal microscopy, on ViewPlate-96 plates (PerkinElmer) for FRET assays, or on CulturPlates (PerkinElmer) for BRET assays. Neurons were maintained in Dulbecco's modified Eagle medium (DMEM) containing 10% fetal bovine serum (FBS), antibiotic-antimitotic, and N1 supplement for 48 h before study.
Rat DRG neurons expressing FRET biosensors were serum-restricted (0.5% FBS overnight), and equilibrated in HBSS-HEPES (10 mM HEPES, pH 7.4, 30 min, 37° C.). FRET was analyzed using an Operetta CLS High-Content Imaging System (PerkinElmer) or an INCell Analyzer 2000 G E Healthcare Life Sciences). For CFP/YFP emission ratio analysis, cells were sequentially excited using a CFP filter (410-430 nm) with emission measured using YFP (520-560 nm) and CFP (460-500 nm) filters. Cells were imaged at 1 or 2 min intervals. Baseline was measured, neurons were challenged with trypsin (10 or 100 nM) or vehicle, and responses recorded for a further 30 min. Neurons were then challenged with phorbol 12,13-dibutyrate (PDBu, 200 nM, 10 min) for EKAR biosensors or PDBu (200 nM) and phosphatase inhibitor cocktail-2 (SigmaAldrich, 10 min) for CKAR biosensors. Data were analyzed using Harmony 4.1 or Image J 1.51 software. Images taken were aligned, cells were selected based on diameter, and fluorescence intensity was calculated for both FRET and CFP channels. Background intensity was subtracted and the FRET ratio was determined as the change in the FRET/donor (EKAR) or donor/FRET (CKAR) emission ratio relative to the baseline for each cell (F/Fo). Cells with >5% changes in F/F0 after PDBu stimulation were selected for analysis. Neurons were incubated with I-343 (10 μM), SCH530348 (100 nM) or vehicle (30 min, 37° C. preincubation and inclusion throughout).

PKC and cAMP = experiment: FRET assays of PKC and cAMP in HEK293 cells; assay type: cell-based
Method: I-343, but not SCH530348, inhibited trypsin stimulation of PKC and cAMP, which thus depend on PAR2 (FIGS. 19G and H). […] The sustained plasma membrane cAMP response to trypsin support the existence of mechanisms that allow persistent PAR2 signaling, which warrant further investigation.
HEK293 cells were cultured in DMEM supplemented with 10% (v/v) FBS (5% CO2, 37° C.). When necessary serum restriction was achieved by replacing culture medium with DMEM containing 0.5% FBS overnight. Cells were transiently transfected using polyethylenimine (PEI) (1:6 DNA:PEI).
HEK293 cells were transiently transfected in 10 cm dishes (˜50% confluency) with Flag-PAR2-HA (2.5 μg) and FRET biosensors CytoEKAR or NucEKAR (2.5 μg) (Jensen, D. D. et al., Sci Transl Med. 2017, 9(392), eaal3447; Thomsen, A. R. B., et al., Cell 2016, 166(4): 907-919). In experiments examining the role of dynamin, cells were transfected with FLAG-PAR2-HA (1.25 μg), FRET biosensor (1.25 μg) and either DynWT-HA, DynK44E-HA or pcDNA3.1 (2.5 μg). At 24 h after transfection, cells were seeded on ViewPlate-96 well plates (PerkinElmer). FRET was assessed 72 h post-transfection, following overnight serum restriction. Cells were equilibrated in HBSS-HEPES (30 min, 37° C.). FRET was measured using a PHERAstar FSX Microplate Reader (BMG LabTech). For CFP/YFP emission ratio analysis, cells were sequentially excited using a CFP filter (425/10 nm) with emission measured using YFP (550/50 nm) and CFP (490/20 nm) filters. FRET was measured before and after stimulation with trypsin (10 nM), NE (100 nM), CS (100 nM), phorbol 12,13-dibutyrate, PDBu (positive control, 1 μM), or vehicle. FRET ratios (donor/acceptor intensity for EKAR, or acceptor/donor intensity for CKAR and Epac) were calculated and corrected to baseline and vehicle treatments to determine ligand-induced FRET (ΔFRET). Treatment effects were determined by comparison of area under the curve values. Signalling inhibitors were dissolved in HBSS-HEPES. PS2 and PS2 inact were dissolved in HBSS-HEPES+1% DMSO. […]

[1] = trypsin 10 or 100 nM, rat DRG neurons

## trypsin
PKC and ERK activity; [1]
  ERK activity in the cytosol and nucleus: activated
  PKC activity at the plasma membrane: activated
  PKC activity in the cytosol: not
PKC and cAMP; trypsin 10 nM
  PKC activation and cAMP generation at the plasma membrane and in the cytosol: rapid and sustained activation

## Cc1nc(C(=O)N2CCN(C(=O)c3cn4nc(-c5ccc(F)cc5)cc(C(C)(C)C)c4n3)C(C)(C)C2)n[nH]1 [Compound I-343, (8-(tert-butyl)-6-(4-fluorophenyl)imidazo[1,2-b]pyridazin-2-yl)(2,2-dimethyl-4-(5-methyl-1H-1,2,4-triazole-3-carbonyl)piperazin-1-yl)methanone]
PKC and ERK activity; I-343 10 μM, SCH530348 100 nM
  trypsin-induced activation of PKC and ERK: inhibited
PKC and cAMP; HEK293 cells
  trypsin stimulation of PKC and cAMP: inhibited
